Experiments:
[1] = tested on: human monocyte-derived dendritic cells (moDCs); experiment: DAMP screen: IL-1β secretion by LPS-activated human moDCs (ELISA); assay type: cell-based
Experimental: Danger-Associated Molecular Pattern (DAMP) Screen.
(§1) Quantification of IL-1beta Secretion. IL-1beta secretion was assessed using the ELISA MAX Deluxe Set Human IL-1beta kit (Biolegend). ELISAs were performed according to manufacturer's instructions with the following modifications: i) total sample volume for incubation was reduced from […] the top standard was prepared at […], with two-fold dilutions to […]; and iii) sample incubation was completed overnight at 4 C on an orbital shaker. […] To determine IL-1beta concentration in supernatants, sample IL-1beta concentrations were interpolated using a standard curve via 4PL analysis on GraphPad Prism 9 (GraphPad Software). The interpolated results of samples were then adjusted for any dilutions made to the supernatant.

[2] = tested on: human monocyte-derived dendritic cells (moDCs); experiment: DAMP screen: viability of human moDCs (CellTiter-Glo)
Experimental: Danger-Associated Molecular Pattern (DAMP) Screen. After 6 days of differentiation into moDC, cells were collected and counted. Cells were plated at 100,000 cells/well in R10 media in 96-well flat bottom tissue culture-treated plates. LPS, serotype O55:B5 (Enzo Life Sciences) was added to a final concentration of 1 μg/mL in each well. […] Cells were incubated at 37° C., 5% CO2 for two days. Cell cultures were then used for endpoint analyses.
Endpoint Analyses. After culturing moDCs with PAMPs and DAMPs for two days, supernatant and cell samples were collected for analysis.
(§2) Quantification of Cell Viability. Cell viability was assessed by quantifying the presence of ATP as an indicator of metabolically active cells using the CellTiter-Glo Luminescent Cell Viability Assay (Promega). Metabolic activity was assessed following manufacturer's instructions. The CellTiter-Glo reagent was mixed with the cell pellets and remaining supernatant, and transferred to a white, opaque 96-well plate. Luminescence was measured on all wavelengths on a Spectramax iD3 plate reader (Molecular Devices) using an integration time of 500 ms. Percent viability was calculated relative to the control condition of moDCs treated with LPS.

[3] = tested on: human monocyte-derived dendritic cells (moDCs); experiment: Lipid titration: IL-1β secretion by LPS-activated human moDCs; assay type: cell-based; settings: for Activity Units (AU) ± SD (lipid activity index): reciprocal of lowest concentration giving IL-1β two-fold over LPS x highest IL-1β signal
Experimental: as §1

[4] = tested on: human monocyte-derived dendritic cells (moDCs); experiment: Lipid titration: viability of human moDCs (CellTiter-Glo); settings: 10.3 μM lipid + LPS 1 μg/mL, 2 days; relative to LPS-treated moDCs; Table 1-5
Experimental: Lipid Titration. After 6 days of differentiation into moDC, cells were collected and counted. Cells were replated at 100,000 cells/well in R10 media in 96-well flat bottom tissue culture-treated plates. LPS, serotype 055:B5 (Enzo Life Sciences) was added to a final concentration of 1 μg/mL in each well. After the addition of LPS, lipids were prepared. […] After two days of culture, cell cultures were used for endpoint analyses.
Endpoint Analyses. After culturing moDCs with PAMPs and DAMPs for two days, supernatant and cell samples were collected for analysis. Cells in culture were pelleted by centrifugation at 400×g for 5 min.
as §2
Statistical Analyses. […] For each tested condition, cells from each donor were plated to be tested in triplicate.

[5] = 41.3 μM lipid + LPS 1 μg/mL, 2 days, Table 1-2
[6] = 41.3 μM lipid + LPS 1 μg/mL, 2 days, relative to LPS-treated moDCs, Table 1-2
[7] = 82.5 μM lipid + LPS 1 μg/mL, 2 days, relative to LPS-treated moDCs, Table 1-1
[8] = 82.5 μM lipid + LPS, selected lipids, Table 1-3 (repeats Table 1-1)
[9] = 10.3 μM lipid + LPS 1 μg/mL, 2 days, Table 1-5
[10] = 20.6 μM lipid + LPS, human moDCs, 4 donors, mean (SD in wrapped line below)

| SMILES | IL-1β secretion [1, 5] [pg/mL] | Relative Viability (%) ± SD [2, 6] [%] | Relative Viability (%) ± SD [2, 7] [%] | IL-1β secretion [1, 8] [pg/mL] | IL-1β secretion [3, 9] [pg/mL] | IL-1β secretion [3, 10] [pg/mL] | Relative Viability (%) ± SD [2, 8] [%] | Relative Viability (%) ± SD [4] [%] | lipid activity index, ranking in words ([3]; lipid 1.3-82.5 μM + LPS) | Activity Units (AU) ± SD (lipid activity index) ([3]; lipid 1.3-82.5 μM + LPS) [AU] |
| --- | --- | --- | --- | --- | --- | --- | --- | --- | --- | --- |
| CCCCCCCCCCCCCCCC(=O)O[C@H](CO)COP(=O)([O-])OCC[N+](C)(C)C [2-16:0 LYSO PC, 1-hydroxy-2-palmitoyl-sn-glycero-3-phosphocholine] | 93.0 | 87.2 | 43.9 | – | – | – | – | – | – | – |
| CCCCCCCCCCCCCCCCCC(=O)O[C@H](CO)COP(=O)([O-])OCC[N+](C)(C)C [2-18:0 LYSO PC, 2-stearoyl-sn-glycero-3-phosphocholine] | 225.0 | 65.3 | 11.5 | – | – | – | – | – | – | – |
| CCCCCCCC/C=C\CCCCCCCC(=O)O[C@H](CO)COP(=O)([O-])OCC[N+](C)(C)C [2-18:1 Δ9 LYSO PC, 1-hydroxy-2-oleoyl-sn-glycero-3-phosphocholine] | 45.0 | 100.6 | 97.7 | – | – | – | – | – | – | – |
| CCCCCC(=O)OC[C@@H](O)COP(=O)([O-])OCC[N+](C)(C)C [06:0 LYSO PC] | 48.2 | 96.1 | 92.8 | – | – | – | – | – | – | – |
| CCCCCCC(=O)OC[C@@H](O)COP(=O)([O-])OCC[N+](C)(C)C [07:0 LYSO PC] | 36.0 | 97.9 | 93.9 | – | – | – | – | – | – | – |
| CCCCCCCC(=O)OC[C@@H](O)COP(=O)([O-])OCC[N+](C)(C)C [08:0 LYSO PC] | 32.2 | 96.7 | 95.3 | – | – | – | – | – | – | – |
| CCCCCCCCC(=O)OC[C@@H](O)COP(=O)([O-])OCC[N+](C)(C)C [09:0 LYSO PC] | 31.3 | 98.2 | 95.4 | – | – | – | – | – | – | – |
| CCCCCCCCCCC(=O)OC[C@@H](O)COP(=O)([O-])OCC[N+](C)(C)C [11:0 LYSO PC] | 39.3 | 94.9 | 92.8 | – | – | – | – | – | – | – |
| CCCCCCCCCCCC(=O)OC[C@@H](O)COP(=O)([O-])OCC[N+](C)(C)C [12:0 LYSO PC] | 54.5 | 96.6 | 91.1 | 115.3 | 43.1 | 44.2 | 91.1 | 97.3 | – | – |
| CCCCCCCCCCCCC(=O)OC[C@@H](O)COP(=O)([O-])OCC[N+](C)(C)C [13:0 LYSO PC, 1-tridecanoyl-2-hydroxy-sn-glycero-3-phosphocholine] | 80.7 | 93.9 | 93.2 | – | – | – | – | – | – | – |
| CCCCCCCCCCCCCCCC(=O)O[C@H](COC(=O)CCCCCCCCCCCCC)COP(=O)([O-])OCC[N+](C)(C)C [14:0-16:0 PC] | 32.7 | 97.1 | 90.8 | – | – | – | – | – | – | – |
| CCCCCCCCCCCCCCCCCC(=O)O[C@H](COC(=O)CCCCCCCCCCCCC)COP(=O)([O-])OCC[N+](C)(C)C [14:0-18:0 PC] | 24.0 | 100.0 | 90.5 | – | – | – | – | – | – | – |
| CCCCCCCCCCCCCCC(=O)OC[C@@H](O)COP(=O)([O-])OCC[N+](C)(C)C [15:0 LYSO PC, 1-pentadecanoyl-2-hydroxy-sn-glycero-3-phosphocholine] | 150.3 | 90.8 | 65.4 | – | – | – | – | – | – | – |
| CCCCCCCCCCCCCCCC(=O)OC[C@@H](O)COP(=O)([O-])OCC[N+](C)(C)C [16:0 LYSO PC, 1-palmitoyl-2-hydroxy-sn-glycero-3-phosphocholine] | 97.4 | 87.2 | 44.7 | – | – | – | – | – | – | – |
| CCCCCCCCCCCCCCCC(=O)OC[C@H](COP(=O)([O-])OCC[N+](C)(C)C)OC(=O)CCCCCCCCCCCCC [16:0-14:0 PC] | 42.2 | 101.0 | 87.4 | – | – | – | – | – | – | – |
| CCCCCCCCCCCCCCCCCC(=O)O[C@H](COC(=O)CCCCCCCCCCCCCCC)COP(=O)([O-])OCC[N+](C)(C)C [16:0-18:0 PC] | 26.3 | 97.7 | 88.8 | – | – | – | – | – | – | – |
| CCCCCCCC/C=C\CCCCCCCC(=O)O[C@H](COC(=O)CCCCCCCCCCCCCCC)COP(=O)([O-])OCC[N+](C)(C)C [16:0-18:1 PC (POPC)] | 28.2 | 96.5 | 92.9 | – | – | – | – | – | – | – |
| CCCCCCCCCCCCCCCC(=O)OC[C@H](COP(=O)([O-])OCC[N+](C)(C)C)OC(=O)CCCCCCCCCCC(CCCCCC)OC(=O)CCCCCCCCCCCCCCC (some centres unmarked) [16:0-(12-PAHSA) PC] | 37.0 | 98.3 | 96.9 | – | – | – | – | – | – | – |
| CCCCCC/C=C\CCCCCCCCC(=O)OC[C@@H](O)COP(=O)([O-])OCC[N+](C)(C)C [17:1 Δ^10 LYSO PC, 1-(10Z-heptadecenoyl)-2-hydroxy-sn-glycero-3-phosphocholine] | 42.7 | 97.2 | 95.3 | – | – | – | – | – | – | – |
| CCCCCCCCCCCCCCCCCC(=O)OC[C@H](COP(=O)([O-])OCC[N+](C)(C)C)OC(=O)CCCCCCCCCCCCC [18:0-14:0 PC] | 31.2 | 98.1 | 86.1 | – | – | – | – | – | – | – |
| CCCCCCCCCCCCCCCCCC(=O)OC[C@H](COP(=O)([O-])OCC[N+](C)(C)C)OC(=O)CCCCCCCCCCCCCCC [18:0-16:0 PC] | 20.1 | 100.3 | 85.3 | – | – | – | – | – | – | – |
| CCCCCCCC/C=C\CCCCCCCC(=O)OC[C@@H](O)COP(=O)([O-])OCC[N+](C)(C)C [18:1 Δ^9 LYSO PC] | 34.8 | 97.8 | 91.5 | – | – | – | – | – | – | – |
| CCCCCCCCCCCCCCCCCCC(=O)OC[C@@H](O)COP(=O)([O-])OCC[N+](C)(C)C [19:0 LYSO PC, 1-nonadecanoyl-2-hydroxy-sn-glycero-3-phosphocholine] | 468.9 | 39.4 | 2.7 | 209.3 | 43.0 | 55.6 | 2.7 | 96.4 | followed by 19:0 Lyso PC | 6.34 ± 3.39 |
| CCCCCCCCCCCCCCCCCCCC(=O)OC[C@@H](O)COP(=O)([O-])OCC[N+](C)(C)C [20:0 LYSO PC, 1-arachidoyl-2-hydroxy-sn-glycero-3-phosphocholine] | 168.7 | 75.2 | 6.0 | – | – | – | – | – | – | – |
| CCCCCCCCCCCCCCCCCCCCCCCC(=O)OC[C@@H](O)COP(=O)([O-])OCC[N+](C)(C)C [24:0 LYSO PC, 1-lignoceroyl-2-hydroxy-sn-glycero-3-phosphocholine] | 38.8 | 94.6 | 96.0 | 39.7 | 36.5 | 36.6 | 96.0 | 96.8 | – | – |
| CCCCCCCCCCCCCCCCCCCCCCCCCC(=O)OC[C@@H](O)COP(=O)([O-])OCC[N+](C)(C)C [26:0 LYSO PC] | 43.1 | 93.3 | 94.7 | – | – | – | – | – | – | – |
| CCCCCCCCCCCCCCCC(=O)OC[C@H](COP(=O)([O-])OCC[N+](C)(C)C)OC(=O)CCCCCCCC(=O)O [PAzePC, 1-palmitoyl-2-azelaoyl-sn-glycero-3-phosphocholine, reference compound] | 191.7 | 95.6 | 78.8 | 153.4 | 47.9 | 59.0 | 78.8 | 98.0 | – | 1.81 ± 1.95 |
| CCCCCCCCCCCCCCCC(=O)OC[C@H](COP(=O)([O-])OCC[N+](C)(C)C)OC(=O)CCCC=O [POVPC, 1-palmitoyl-2-(5′-oxo-valeroyl)-sn-glycero-3-phosphocholine, reference compound] | 121.5 | 92.1 | 79.5 | 168.5 | 49.1 | 60.6 | 79.5 | 97.3 | – | 0.00 ± 0.00 |
